Data on three compounds can be found in patent US8710070B2, “Opioid-ketamine and norketamine codrug combinations for pain management” (University of Kentucky Research Foundation, priority 2008, dated 2014).

Where “and” joins values, the source holds several entries; their conditions need not be identical. Identical values can stand only once. Like-named read-outs stand apart in the source and are kept apart here.

For one assay, the system named is Male Rats. To be noted: individual rats.
For another assay, the system named is NMDA receptor. To be noted: Ebert et al., 1997; cited from earlier work.
For assay [1] the following is noted: C. S. T. Aun, 1999, cited from earlier work.

Experimental for Male Rats: • 1) Solution MOR 3 mg/ul (the same Mor. […] 1) • 2) (+) Norketamine 3 mg/ml dose 3 mg/kg inj.
• TFL—intensity 40%, idle activity 5%, cut-off 10 sec.
• TFL—Intensity 40%, idle activity 5%, cut-off 10 sec.
• TFL—Intensity 40%, idle activity 5%, cut-off 10 seconds Solutions:

With `CN1CC[C@]23c4c5ccc(O)c4O[C@H]2[C@@H](O)C=C[C@H]3[C@H]1C5` [Morphine, morphine], the “TFL 15 min.” value with Male Rats (Day 1, male rats 5-8, MOR 3 mg/kg + SAL or (+) Norket 3 mg/kg, 15 min after injection, listed as MOR) is 3.24 s and 3.55 s; in the assay on Male Rats (Day 2, male rats 1-4, Mor 3 mg/kg & (−) Norketamine 3 mg/kg or saline, 15 min, cut-off 10 sec, listed as Mor) it was 2.03 s and 4.89 s; with Male Rats (Day 2, male rats 5-8, 3 mg/kg Mor & 3 mg/kg (+) Norketamine or saline, 15 min, cut-off 10 sec, listed as Mor), 3.41 s and 3.48 s; in the assay with Male Rats (second series, Day 1, male rats 1-4, 3 mg/kg Morphine & saline or 3 mg/kg (−) Norketamine, 15 min, cut-off 10 sec), 2.92 s and 1.82 s; in the assay with Male Rats (second series, Day 1, male rats 5-8, 3 mg/kg Morphine & saline or 3 mg/kg (+) Norketamine, 15 min, cut-off 10 sec), 2.97 s and 2.88 s; in the assay with Male Rats (second series, Day 2, male rats 5-8, 3 mg/kg Morphine & 3 mg/kg (+) Norketamine or saline, 15 min, cut-off 10 seconds), 2.25 s and 1.56 s. Besides, the “TFL 30 min.” value with Male Rats (Day 1, male rats 5-8, MOR 3 mg/kg + SAL or (+) Norket 3 mg/kg, 30 min after injection, listed as MOR) was 5.72 s and 6.2 s; in the assay on Male Rats (Day 2, male rats 1-4, Mor 3 mg/kg & (−) Norketamine 3 mg/kg or saline, 30 min, cut-off 10 sec, listed as Mor) it was 2.74 s and 7.26 s; in the assay with Male Rats (Day 2, male rats 5-8, 3 mg/kg Mor & 3 mg/kg (+) Norketamine or saline, 30 min, cut-off 10 sec, listed as Mor), 4.09 s and 3.22 s; in the assay with Male Rats (second series, Day 1, male rats 1-4, 3 mg/kg Morphine & saline or 3 mg/kg (−) Norketamine, 30 min, cut-off 10 sec), 3.64 s and 2.36 s; with Male Rats (second series, Day 1, male rats 5-8, 3 mg/kg Morphine & saline or 3 mg/kg (+) Norketamine, 30 min, cut-off 10 sec) it was 2.75 s and 3.86 s; with Male Rats (second series, Day 2, male rats 5-8, 3 mg/kg Morphine & 3 mg/kg (+) Norketamine or saline, 30 min, cut-off 10 seconds), 2.46 s and 1.97 s. For the same compound, the “TFL 60 min.” value in the assay on Male Rats (Day 1, male rats 5-8, MOR 3 mg/kg + SAL or (+) Norket 3 mg/kg, 60 min after injection, listed as MOR) is 1.93 s and 4.50 s; in the assay on Male Rats (Day 2, male rats 1-4, Mor 3 mg/kg & (−) Norketamine 3 mg/kg or saline, 60 min, cut-off 10 sec, listed as Mor), 1.94 s and 6.84 s; in the assay on Male Rats (Day 2, male rats 5-8, 3 mg/kg Mor & 3 mg/kg (+) Norketamine or saline, 60 min, cut-off 10 sec, listed as Mor), 4.03 s and 3.01 s; in the assay with Male Rats (second series, Day 1, male rats 1-4, 3 mg/kg Morphine & saline or 3 mg/kg (−) Norketamine, 60 min, cut-off 10 sec), 3.28 s and 3.30 s; in the assay with Male Rats (second series, Day 1, male rats 5-8, 3 mg/kg Morphine & saline or 3 mg/kg (+) Norketamine, 60 min, cut-off 10 sec), 3.51 s and 3.69 s; with Male Rats (second series, Day 2, male rats 5-8, 3 mg/kg Morphine & 3 mg/kg (+) Norketamine or saline, 60 min, cut-off 10 seconds), 3.83 s and 2.08 s. The “TFL 120 min.” value in the assay on Male Rats (Day 1, male rats 5-8, MOR 3 mg/kg + SAL or (+) Norket 3 mg/kg, 120 min after injection, listed as MOR) was 1.61 s and 5.44 s; in the assay with Male Rats (Day 2, male rats 1-4, Mor 3 mg/kg & (−) Norketamine 3 mg/kg or saline, 120 min, cut-off 10 sec, listed as Mor), 1.48 s and 5.37 s; in the assay on Male Rats (Day 2, male rats 5-8, 3 mg/kg Mor & 3 mg/kg (+) Norketamine or saline, 120 min, cut-off 10 sec, listed as Mor), 2.94 s and 2.12 s; with Male Rats (second series, Day 1, male rats 1-4, 3 mg/kg Morphine & saline or 3 mg/kg (−) Norketamine, 120 min, cut-off 10 sec), 2.74 s and 1.92 s; in the assay on Male Rats (second series, Day 1, male rats 5-8, 3 mg/kg Morphine & saline or 3 mg/kg (+) Norketamine, 120 min, cut-off 10 sec) it was 2.70 s and 2.17 s; with Male Rats (second series, Day 2, male rats 5-8, 3 mg/kg Morphine & 3 mg/kg (+) Norketamine or saline, 120 min, cut-off 10 seconds), 2.60 s and 2.24 s.

Regarding `NC1(c2ccccc2Cl)CCCCC1=O` (stereo not drawn) [Norketamine, 2-(2-chlorophenyl)-2-amino-cyclohexanone], the “binding to the NMDA receptor relative to S- and R-ketamine” value in the assay with NMDA receptor is given as “less tightly than either S- or R-ketamine”. In addition, the “anesthetic and analgesic potency relative to ketamine” value in assay [1] (speculated) is listed as “one third that of ketamine”.

Turning to `CN[C@]1(c2ccccc2Cl)CCCCC1=O` [S-ketamine], the “potency relative to R-ketamine” value in assay [1] is reported as “twice as potent as R-ketamine”.
